ChEMBL document CHEMBL3885861, “Open TG-GATES”

Organism: Rattus norvegicus
Experiment: Open TG-GATES - Regimen: Single
Assay type: toxicity, organism-based, Sprague-Dawley
Parameters: regimen Single, gender Male, age 6 weeks
Settings: in vivo, po, 3 mg/kg, route gavage, dose level Low; for APTT / Bas / Eos / Fbg / Hb / Ht / Lym / MCH / MCHC / MCV / Mono / Neu / PT / Plat / RBC / Ret / WBC: tissue Blood; for KIDNEY_L / KIDNEY_R / KIDNEY_TOTAL: tissue Kidney; for LIVER: tissue Liver; for A/G / ALP / ALT / AST / BUN / CRE / Ca / Cl / DBIL / GLC / IP / K / LDH / Na / PL / RALB / TBIL / TC / TG / TP / gamma-GTP: tissue Plasma

## Cn1cnc([N+](=O)[O-])c1Sc1ncnc2nc[nH]c12 [AZATHIOPRINE]
3 h
  TERMINAL_BW: 191 g
  APTT: 23.4 s
  Bas: 0%
  Eos: 1%
  Fbg: 295.8 mg/dL
  Hb: 13.4 g/dL
  Ht: 40.1%
  Lym: 77.8%
  MCH: 21.6 pg
  MCHC: 33.4%
  MCV: 64.6 fL
  Mono: 1.8%
  Neu: 18.2%
  PT: 15.8 s
  Plat: 115.7 x10_4/uL
  RBC: 621.4 x10_4/ul
  Ret: 9.1%
  WBC: 67.9 x10_2/uL
  KIDNEY_L: 0.8 g
  KIDNEY_R: 0.9 g
  KIDNEY_TOTAL: 1.7 g
  LIVER: 8.6 g
  A/G: 1.2
  ALP: 1535.2 IU/L
  ALT: 41.6 IU/L
  AST: 73.4 IU/L
  BUN: 13.2 mg/dL
  CRE: 0.1 mg/dL
  Ca: 10.6 mg/dL
  Cl: 106.8 meq/L
  DBIL: 0.002 mg/dL
  GLC: 190.2 mg/dL
  IP: 8.1 mg/dL
  K: 4.2 meq/L
  LDH: 273.6 IU/L
  Na: 142.8 meq/L
  PL: 139.2 mg/dL
  RALB: 3 g/dL
  TBIL: 0.004 mg/dL
  TC: 75.4 mg/dL
  TG: 68 mg/dL
  TP: 5.5 g/dL
  gamma-GTP: 1 IU/L
6 h
  TERMINAL_BW: 185.7 g
  APTT: 21.8 s
  Bas: 0%
  Eos: 0.8%
  Fbg: 324.4 mg/dL
  Hb: 13.1 g/dL
  Ht: 39%
  Lym: 69.2%
  MCH: 22.3 pg
  MCHC: 33.6%
  MCV: 66.3 fL
  Mono: 2.2%
  Neu: 26.2%
  PT: 15.7 s
  Plat: 130.1 x10_4/uL
  RBC: 589.2 x10_4/ul
  Ret: 9.5%
  WBC: 95.2 x10_2/uL
  KIDNEY_L: 0.8 g
  KIDNEY_R: 0.8 g
  KIDNEY_TOTAL: 1.7 g
  LIVER: 8.1 g
  A/G: 1.2
  ALP: 1674.4 IU/L
  ALT: 43.2 IU/L
  AST: 75 IU/L
  BUN: 9.4 mg/dL
  CRE: 0.1 mg/dL
  Ca: 10.5 mg/dL
  Cl: 106.8 meq/L
  DBIL: 0.002 mg/dL
  GLC: 182.4 mg/dL
  IP: 8.8 mg/dL
  K: 4.2 meq/L
  LDH: 288.6 IU/L
  Na: 142.2 meq/L
  PL: 135.8 mg/dL
  RALB: 3 g/dL
  TBIL: 0.008 mg/dL
  TC: 78.8 mg/dL
  TG: 48.4 mg/dL
  TP: 5.5 g/dL
  gamma-GTP: 1 IU/L
9 h
  TERMINAL_BW: 186.8 g
  APTT: 22.5 s
  Bas: 0%
  Eos: 1%
  Fbg: 311.8 mg/dL
  Hb: 13 g/dL
  Ht: 38.7%
  Lym: 74%
  MCH: 21.2 pg
  MCHC: 33.5%
  MCV: 63.4 fL
  Mono: 2.4%
  Neu: 20.6%
  PT: 15.3 s
  Plat: 125.3 x10_4/uL
  RBC: 611 x10_4/ul
  Ret: 9.3%
  WBC: 83.5 x10_2/uL
  KIDNEY_L: 0.9 g
  KIDNEY_R: 0.9 g
  KIDNEY_TOTAL: 1.7 g
  LIVER: 7.5 g
  A/G: 1.2
  ALP: 1456.2 IU/L
  ALT: 38.4 IU/L
  AST: 70.4 IU/L
  BUN: 10.6 mg/dL
  CRE: 0.1 mg/dL
  Ca: 10.5 mg/dL
  Cl: 107 meq/L
  DBIL: 0 mg/dL
  GLC: 183.4 mg/dL
  IP: 9.3 mg/dL
  K: 4.2 meq/L
  LDH: 234.2 IU/L
  Na: 141.6 meq/L
  PL: 140.8 mg/dL
  RALB: 2.9 g/dL
  TBIL: 0.016 mg/dL
  TC: 83.4 mg/dL
  TG: 51.8 mg/dL
  TP: 5.4 g/dL
  gamma-GTP: 1 IU/L
24 h
  TERMINAL_BW: 202.9 g
  APTT: 21.3 s
  Bas: 0%
  Eos: 1%
  Fbg: 322.4 mg/dL
  Hb: 13.5 g/dL
  Ht: 39.2%
  Lym: 77.8%
  MCH: 21.9 pg
  MCHC: 34.5%
  MCV: 63.4 fL
  Mono: 2.2%
  Neu: 18.4%
  PT: 16 s
  Plat: 135.6 x10_4/uL
  RBC: 618.4 x10_4/ul
  Ret: 8.2%
  WBC: 63.3 x10_2/uL
  KIDNEY_L: 0.9 g
  KIDNEY_R: 0.9 g
  KIDNEY_TOTAL: 1.8 g
  LIVER: 9.7 g
  A/G: 1.3
  ALP: 1726.6 IU/L
  ALT: 48.8 IU/L
  AST: 75.4 IU/L
  BUN: 14.6 mg/dL
  CRE: 0.1 mg/dL
  Ca: 11.1 mg/dL
  Cl: 106.8 meq/L
  DBIL: 0 mg/dL
  GLC: 189 mg/dL
  IP: 7.2 mg/dL
  K: 4.1 meq/L
  LDH: 318.6 IU/L
  Na: 143.4 meq/L
  PL: 148.2 mg/dL
  RALB: 3.2 g/dL
  TBIL: 0.004 mg/dL
  TC: 76.4 mg/dL
  TG: 120 mg/dL
  TP: 5.7 g/dL
  gamma-GTP: 1.2 IU/L
